Results on 23 compounds are retold here after ChEMBL document CHEMBL1136022, “Development of tripeptidyl farnesyltransferase inhibitors” (Bioorg Med Chem Lett, 2002).

pIC50: −log10 of the molar value. Where a SMILES comes first, the peptide text is derived from it. The star is where a group is joined. Isovaleryl = CC(C)CC(=O)*; Isobutyryl = CC(C)C(=O)*; Octanoyl = CCCCCCCC(=O)*; Hexanoyl = CCCCCC(=O)*; PhAc = O=C(Cc1ccccc1)*; Bz = O=C(c1ccccc1)*

For assay [1], the target named is Protein farnesyltransferase (Bos taurus) (UniProt P29702+P49355). The assay is described as follows: In vitro inhibition of bovine Farnesyltransferase at a 1 ug/mL. The assay is classed as protein-complex assay.
The target of assay [2] is Protein farnesyltransferase (Bos taurus, UniProt P29702+P49355). As to the kind of experiment: In vitro inhibition of bovine Farnesyltransferase. In kind it is protein-complex assay.

`COC(=O)[C@H](Cc1ccc(OC(=O)Cc2ccccc2)cc1)NC(=O)[C@@H](NC(=O)[C@@H](N)CS)C(C)C` (H-Cys-Val-Tyr(PhAc)-OMe) showed an inhibition in assay [1] of 32%.
`COC(=O)[C@H](Cc1cccc(OC(=O)/C=C/c2ccccc2)c1)NC(=O)[C@@H](NC(=O)[C@@H](N)CS)C(C)C` yielded an inhibition in assay [1] of 17%. The pIC50 in assay [2] is 4.77.
Turning to `COC(=O)[C@H](Cc1ccc(OC(=O)CC(C)C)cc1)NC(=O)[C@@H](NC(=O)[C@@H](N)CS)C(C)C` (H-Cys-Val-Tyr(Isovaleryl)-OMe), the inhibition in assay [1] amounted to 74%. The compound also gave a pIC50 in assay [2] of 6.09.
As for `COC(=O)[C@H](COC(=O)c1ccccc1)NC(=O)[C@@H](NC(=O)[C@@H](N)CS)C(C)C` (H-Cys-Val-Ser(Bz)-OMe), the inhibition in assay [1] came out at 69.3%. The compound also gave a pIC50 in assay [2] of 6.05.
In assay [2], `COC(=O)[C@H](CCSC)NC(=O)[C@H](Cc1ccccc1)NC(=O)[C@@H](NC(=O)[C@@H](N)CS)C(C)C` had a pIC50 of 5.24.
Consider `COC(=O)[C@H](Cc1ccc(OC(=O)CC(C)CCCC(C)C)cc1)NC(=O)[C@@H](NC(=O)[C@@H](N)CS)C(C)C` (some centres undefined), for which the inhibition in assay [1] was determined as 10%. In addition, the pIC50 in assay [2] is 5.09.
In the case of `CCCCCCCC(=O)Oc1ccc(C[C@H](NC(=O)[C@@H](NC(=O)[C@@H](N)CS)C(C)C)C(=O)OC)cc1` (H-Cys-Val-Tyr(Octanoyl)-OMe), the inhibition in assay [1] was 17%. The compound also showed a pIC50 in assay [2] of 4.66.
In the case of `COC(=O)[C@H](Cc1ccc(OC(=O)C=C(C)C)cc1)NC(=O)[C@@H](NC(=O)[C@@H](N)CS)C(C)C`, in assay [1], the inhibition is 79.6%. Further, the pIC50 in assay [2] is 6.30.
In the same order, the values of `COC(=O)[C@H](Cc1ccc(OC(=O)/C=C/c2ccccc2)cc1)NC(=O)[C@@H](NC(=O)[C@@H](N)CS)C(C)C` are 12.6% and 4.37.
In the same order, the values of `COC(=O)[C@H](Cc1cccc(OC(=O)C=C(C)C)c1)NC(=O)[C@@H](NC(=O)[C@@H](N)CS)C(C)C` are 61% and 5.08.
In the same order, the values of `COC(=O)[C@H](Cc1cccc(OC(=O)C(C)C)c1)NC(=O)[C@@H](NC(=O)[C@@H](N)CS)C(C)C` are 30% and 5.00.
In turn, `COC(=O)[C@H](COC(=O)C=C(C)C)NC(=O)[C@@H](NC(=O)[C@@H](N)CS)C(C)C` came in with an inhibition in assay [1] of 38.6%.
In turn, `COC(=O)[C@H](COC(=O)c1ccc(OC)cc1)NC(=O)[C@@H](NC(=O)[C@@H](N)CS)C(C)C` came in with an inhibition in assay [1] of 57%. In assay [2], this compound had a pIC50 of 5.74.
Turning to `COC(=O)[C@H](Cc1cccc(OC(C)=O)c1)NC(=O)[C@@H](NC(=O)[C@@H](N)CS)C(C)C`, the inhibition in assay [1] stood at 12%.
Still for that read-out and setting: in the case of `COC(=O)[C@H](CO)NC(=O)[C@@H](NC(=O)[C@@H](N)CS)C(C)C` (H-Cys-Val-Ser-OMe) it was 0%.
In assay [1], `COC(=O)[C@H](Cc1ccc(OC(=O)c2ccccc2)cc1)NC(=O)[C@@H](NC(=O)[C@@H](N)CS)C(C)C` (H-Cys-Val-Tyr(Bz)-OMe) registered an inhibition of 23.4%. In assay [2], this compound gave a pIC50 of 4.70.
Turning to `COC(=O)[C@H](COC(=O)/C=C/c1ccccc1)NC(=O)[C@@H](NC(=O)[C@@H](N)CS)C(C)C`, the inhibition in assay [1] worked out at 16.3%.
`COC(=O)[C@H](Cc1ccc(OC(=O)C(C)C)cc1)NC(=O)[C@@H](NC(=O)[C@@H](N)CS)C(C)C` (H-Cys-Val-Tyr(Isobutyryl)-OMe) showed an inhibition in assay [1] of 26.7%. Further, the pIC50 in assay [2] was 4.92.
In assay [1], `CCCCCC(=O)Oc1ccc(C[C@H](NC(=O)[C@@H](NC(=O)[C@@H](N)CS)C(C)C)C(=O)OC)cc1` (H-Cys-Val-Tyr(Hexanoyl)-OMe) had an inhibition of 42%. In assay [2], this compound gave a pIC50 of 5.12.
On to `COC(=O)[C@H](COC(=O)c1ccc(Cl)cc1)NC(=O)[C@@H](NC(=O)[C@@H](N)CS)C(C)C`, for which, in assay [1], the inhibition stood at 75%. Besides, the pIC50 in assay [2] is 6.09.
Consider `COC(=O)[C@H](Cc1ccc(OC(C)=O)cc1)NC(=O)[C@@H](NC(=O)[C@@H](N)CS)C(C)C` (H-Cys-Val-Tyr(Ac)-OMe), for which the inhibition in assay [1] was 6.3%. The pIC50 in assay [2] was 4.32.
Compound `COC(=O)[C@H](COC(=O)c1ccc(C)cc1)NC(=O)[C@@H](NC(=O)[C@@H](N)CS)C(C)C` returned an inhibition in assay [1] of 67%. The pIC50 in assay [2] is 6.04.
Take `COC(=O)[C@H](Cc1cccc(OC(=O)c2ccccc2)c1)NC(=O)[C@@H](NC(=O)[C@@H](N)CS)C(C)C`: the inhibition in assay [1] amounted to 69.3%.
